Test results published in ChEMBL document CHEMBL4421722, “Inhibitors of protein prenyltransferases” (2013).

What was measured:
[1] = organism: Rattus norvegicus; assay: Inhibition of rat recombinant geranylgeranyltransferase type I expressed in Escherichia coli assessed as residual enzyme activity for geranylgeranylation of K-Ras4B at 50 uM incubated for 30 mins in presence of [3H]GGPP by scintillation counting assay relative to control
[2] = organism: Rattus norvegicus; assay: Inhibition of rat recombinant geranylgeranyltransferase type I expressed in Escherichia coli assessed as residual enzyme activity for geranylgeranylation of RhoA at 50 uM incubated for 30 mins in presence of [3H]GGPP by scintillation counting assay relative to control

SMILES | Activity [1] | Activity [2]
Cc1ccc(S(=O)(=O)N2C[C@@H](C(=O)O)[C@H](SCc3ccc(Cl)cc3)C[C@H]2c2ccccc2)cc1 | 23.7 to 24.8% | 14.2%
COc1ccc(S[C@H]2[C@@H](C(=O)O)[C@H](c3ccc(Cl)cc3)N(S(=O)(=O)c3ccc(Cl)cc3)[C@@H]2C(C)C)cc1 | 48.7% | 8%
Cc1ccc([C@@H]2C[C@@H](SCCc3ccccc3)[C@H](C(=O)O)CN2S(=O)(=O)c2ccc(Cl)cc2)cc1 | 22.7 to 27% | 9.5%
Cc1ccc(S(=O)(=O)N2C[C@@H](C(=O)O)[C@H](Sc3ccc(Cl)cc3)C[C@H]2c2ccc(Cl)cc2)cc1 | 52.1% | 4.9%
CCC[C@@H]1[C@@H](Sc2ccc(OC)cc2)[C@@H](C(=O)O)[C@H](c2cccc(F)c2)N1S(=O)(=O)c1ccc(C)cc1 | 27.4% | 3.5%
CCc1ccc([C@@H]2C[C@@H](SCCc3ccccc3)[C@H](C(=O)O)CN2S(=O)(=O)c2ccc(C)cc2)cc1 | 2.3 to 3% | 2.9%
CCCCCS[C@H]1[C@@H](C(=O)O)[C@H](c2cccc(F)c2)N(S(=O)(=O)c2ccc(C)cc2)[C@@H]1CCCC | 23.5% | 7.1%
CCCCCC[C@@H]1[C@@H](Sc2ccc(C)cc2)[C@@H](C(=O)O)[C@H](c2ccc(Cl)cc2)N1S(=O)(=O)c1ccccc1 | 15% | 7.5%
Cc1ccc(S(=O)(=O)N2C[C@@H](C(=O)O)[C@H](SCc3ccc(C(C)(C)C)cc3)C[C@H]2c2ccccc2F)cc1 | 71.9% | 
Cc1ccc(S(=O)(=O)N2C[C@@H](C(=O)O)[C@H](SCCC(C)C)C[C@H]2c2ccc(Cl)cc2)cc1 | 39.4% | 
Cc1ccc([C@@H]2C[C@@H](SCC(C)C)[C@H](C(=O)O)CN2S(=O)(=O)c2ccc(C)cc2)cc1 | 83.5% | 
CCCS[C@@H]1C[C@@H](c2cccc(OC)c2)N(S(=O)(=O)c2ccc(C)cc2)C[C@H]1C(=O)O | 73.9% | 
COc1ccc([C@@H]2CC=C(C(=O)O)[C@H](c3ccc(C(C)(C)C)cc3)N2S(=O)(=O)c2ccc(Cl)cc2)cc1 | 68.5% | 
CCCCS[C@@H]1C[C@@H](c2ccccc2F)N(S(=O)(=O)c2ccc(C)cc2)C[C@H]1C(=O)O | 86.3% | 
CS(=O)(=O)N1[C@@H](c2cccc(Br)c2)C(C(=O)O)=CC[C@H]1c1ccccc1 | 63.5% | 
O=C(O)C1=CC[C@@H](c2ccc(Cl)cc2)N(S(=O)(=O)c2ccc(Cl)cc2)[C@H]1c1cccc(F)c1 | 44.8% | 

SMILES | Activity [1] | Activity [2]
Cc1ccc([C@@H]2CC=C(C(=O)O)[C@H](c3ccc(F)cc3)N2S(=O)(=O)c2ccccc2)cc1 | 68.1% | 
Cc1ccc([C@@H]2C[C@@H](Sc3ccccc3)[C@H](C(=O)O)CN2S(=O)(=O)c2ccccc2)cc1 | 92% | 
CCCCCS[C@@H]1C[C@@H](c2ccc(Cl)cc2)N(S(=O)(=O)c2ccc(C)cc2)C[C@H]1C(=O)O | 59.8% | 
COc1ccc([C@@H]2CC=C(C(C)=O)CN2S(=O)(=O)c2ccccc2)cc1 | 110% | 
Cc1ccc([C@@H]2C[C@@H](Sc3ccccc3)[C@H](C(=O)O)CN2S(C)(=O)=O)cc1 | 99.6% | 
Cc1ccc(S(=O)(=O)N2[C@@H](c3ccc(C(C)(C)C)cc3)C(C(=O)O)=CC[C@H]2c2cccs2)cc1 | 68.1% | 
Cc1ccc(S(=O)(=O)N2[C@@H](c3cccc(C)c3)C(C(=O)O)=CC[C@H]2c2ccccc2)cc1 | 64.9% | 
COc1cc([C@@H]2C[C@@H](SCc3ccc(C(C)(C)C)cc3)[C@H](C(=O)O)CN2S(=O)(=O)c2ccc(C)cc2)cc(OC)c1OC | 71.3% | 
CCCCCS[C@@H]1C[C@@H](c2ccc(C)cc2)N(S(C)(=O)=O)C[C@H]1C(=O)O | 107% | 
Cc1ccc([C@@H]2CC=C(C(=O)O)[C@H](c3cccc(F)c3)N2S(=O)(=O)c2ccc(C)cc2)cc1 | 77.3% | 
COC(=O)c1ccccc1S(=O)(=O)N1[C@@H](c2ccc(Cl)cc2)C(C(=O)O)=CC[C@H]1c1ccc(C)cc1 | 81.4% | 
COc1ccc([C@@H]2C[C@@H](SCc3ccc(Cl)cc3)[C@H](C(=O)O)CN2S(=O)(=O)c2ccc(C)cc2)cc1 | 40.7% | 
CCCCCCS[C@@H]1C[C@@H](c2ccc(OC)cc2)N(S(=O)(=O)c2ccccc2)C[C@H]1C(=O)O | 96.2% | 
C=CCS[C@@H]1C[C@@H](c2ccc(OC)cc2)N(S(=O)(=O)c2ccc(C)cc2)C[C@H]1C(=O)O | 108% | 
CCCCCCS[C@@H]1C[C@@H](c2ccc(C)cc2)N(S(=O)(=O)c2ccccc2C)C[C@H]1C(=O)O | 69.9% | 

Second part, the compound after the results:

Activity [1] | Activity [2] | SMILES
20.4 to 22.8% | 0.2 to 3.2% | Cc1ccc(S(=O)(=O)N2C[C@@H](C(=O)O)[C@H](Sc3ccc(Cl)cc3)C[C@H]2c2cccc(Br)c2)cc1
32 to 35.6% | 17.5% | Cc1ccc([C@@H]2C[C@@H](SCc3ccccc3)[C@H](C(=O)O)CN2S(=O)(=O)c2ccccc2C)cc1
31.5% | 7.1% | CCCC[C@@H]1[C@@H](Sc2ccc(C)cc2)[C@@H](C(=O)O)[C@H](c2cccc(F)c2)N1S(=O)(=O)c1ccc(C)cc1
22.4% | 4.9% | C=CCS[C@H]1[C@@H](C(=O)O)[C@H](c2ccc(Cl)cc2)N(S(=O)(=O)c2ccccc2C)[C@@H]1CC1CCCC1
22.6 to 35.4% | 12.4% | Cc1ccc([C@@H]2C[C@@H](SCCc3ccccc3)[C@H](C(=O)O)CN2S(=O)(=O)c2ccc(C)cc2)cc1
26 to 85.1% | 10.7% | Cc1ccc(S(=O)(=O)N2C[C@@H](C(=O)O)[C@H](SCC(C)C)C[C@H]2c2ccccc2)cc1
20.1% | 7.4% | CCCCCC[C@@H]1[C@@H](SC2CCCC2)[C@@H](C(=O)O)[C@H](c2ccc(C#N)cc2)N1S(=O)(=O)c1ccc(C)cc1
 | 2.9% | Cc1ccc(S(=O)(=O)N2C[C@@H](C(=O)O)[C@H](Sc3ccccc3)C[C@H]2c2cccc(Br)c2)cc1
90% |  | Cc1ccc(S(=O)(=O)N2C[C@@H](C(=O)O)[C@H](SCCC(C)C)C[C@H]2c2ccccc2)cc1
55.3% |  | COc1ccc([C@@H]2C[C@@H](Sc3ccc(Cl)cc3)[C@H](C(=O)O)CN2S(=O)(=O)c2ccc(C)cc2)cc1
57.4% |  | Cc1ccc(S(=O)(=O)N2C[C@@H](C(=O)O)[C@H](Sc3ccccc3)C[C@H]2c2ccc3c(c2)OCO3)cc1
67.4% |  | Cc1ccc([C@H]2C(C(=O)O)=CC[C@@H](c3cccc(Br)c3)N2S(=O)(=O)c2ccc(C)cc2)cc1
62.9% |  | CCCCCS[C@@H]1C[C@@H](c2ccc(C)cc2)N(S(=O)(=O)c2ccccc2C)C[C@H]1C(=O)O
63.7% |  | COc1cc([C@@H]2C[C@@H](SCc3ccccc3)[C@H](C(=O)O)CN2S(=O)(=O)c2ccc(C)cc2)cc(OC)c1OC
61.4% |  | CCCCCS[C@@H]1C[C@@H](c2ccccc2F)N(S(=O)(=O)c2ccc(C)cc2)C[C@H]1C(=O)O
63.2% |  | CCOc1ccc([C@@H]2CC=C(C(=O)O)[C@H](c3ccc(C)cc3)N2S(=O)(=O)c2ccc(C)cc2)cc1
94.5% |  | COc1ccc([C@@H]2C[C@@H](SC3CCCC3)[C@H](C(=O)O)CN2S(=O)(=O)c2ccccc2)cc1
62.7% |  | CCCCCCS[C@@H]1C[C@@H](c2ccc3c(c2)OCO3)N(S(=O)(=O)c2ccc(C)cc2)C[C@H]1C(=O)O
63.4% |  | Cc1ccc(S(=O)(=O)N2[C@@H](c3ccc(F)cc3)C(C(=O)O)=CC[C@H]2c2cccc(F)c2)cc1
60.2% |  | Cc1ccc(S(=O)(=O)N2[C@@H](c3ccc(F)cc3)C(C(=O)O)=CC[C@H]2c2cccc(Cl)c2)cc1

Activity [1] | Activity [2] | SMILES
99% |  | Cc1ccc(S(=O)(=O)N2C[C@@H](C(=O)O)[C@H](SCc3ccc(C(C)(C)C)cc3)C[C@H]2c2cccc(Cl)c2)cc1
75.2% |  | Cc1ccc(S(=O)(=O)N2[C@@H](c3ccc(C(C)(C)C)cc3)C(C(=O)O)=CC[C@H]2c2ccccc2)cc1
78.4% |  | COc1ccc(S[C@@H]2C[C@@H](c3ccc(C)cc3)N(S(=O)(=O)c3ccc(C)cc3)C[C@H]2C(=O)O)cc1
86.6% |  | COc1ccc([C@@H]2CC=C(C(=O)O)[C@H](c3cccc(F)c3)N2S(=O)(=O)c2ccccc2C)cc1
90.9% |  | Cc1ccc([C@H]2C(C(=O)O)=CC[C@@H](c3ccc(C#N)cc3)N2S(=O)(=O)c2ccc(C)cc2)cc1
70.9% |  | CCCCCCS[C@@H]1C[C@@H](c2ccc(C)cc2)N(S(=O)(=O)c2ccc(C)cc2)C[C@H]1C(=O)O
56% |  | Cc1ccc(S(=O)(=O)N2[C@@H](c3ccc(F)cc3)C(C(=O)O)=CC[C@H]2c2ccccc2F)cc1
100% |  | COc1ccc(S[C@@H]2C[C@@H](c3ccc(C)cc3)N(S(=O)(=O)c3ccccc3)C[C@H]2C(=O)O)cc1
75.7% |  | CCCS[C@@H]1C[C@@H](c2ccccc2)N(S(=O)(=O)c2ccc(C)cc2)C[C@H]1C(=O)O
78.4% |  | Cc1ccc([C@@H]2CC=C(C(=O)O)[C@H](c3ccc(Br)cc3)N2S(=O)(=O)c2ccccc2)cc1
90.4% |  | COc1ccc([C@@H]2CC=C(C(=O)O)[C@H](c3ccc(C(C)(C)C)cc3)N2S(=O)(=O)c2ccc(C)cc2)cc1OC
83.6% |  | CS(=O)(=O)N1[C@@H](c2ccc(Br)cc2)C(C(=O)O)=CC[C@H]1c1ccccc1
67.3% |  | COc1ccc([C@@H]2CC=C(C(=O)O)[C@H](c3cccc(C)c3)N2S(=O)(=O)c2ccc(C)cc2)cc1
92.1% |  | Cc1ccccc1S(=O)(=O)N1C[C@@H](C(=O)O)[C@H](SC2CCCC2)C[C@H]1c1ccc(Cl)cc1
85% |  | COc1cccc([C@@H]2CC=C(C(C)=O)CN2S(=O)(=O)c2ccc(C)cc2)c1
66.1% |  | COc1ccc([C@@H]2CC=C(C(=O)O)[C@H](c3ccc(F)cc3)N2S(=O)(=O)c2ccccc2C)cc1
67.6% |  | CCCCCCS[C@@H]1C[C@@H](c2ccc(OCC)cc2)N(S(=O)(=O)c2ccc(C)cc2)C[C@H]1C(=O)O
105% |  | CC(=O)C1=CC[C@@H](c2ccc(C(C)C)cc2)N(S(=O)(=O)c2ccc(C)cc2)C1
43.5% |  | O=C(O)C1=CC[C@@H](c2ccc(Cl)cc2)N(S(=O)(=O)c2ccc(Cl)cc2)[C@H]1c1ccc(F)cc1
90% |  | COc1ccc([C@@H]2C[C@@H](SCCC(C)C)[C@H](C(=O)O)CN2S(=O)(=O)c2ccc(C)cc2)cc1
